Test results as given in ChEMBL document CHEMBL1201862, “PubChem BioAssay data set” (2004).
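Values below derive from 48-hour exposures of cells grown in 96-well plates, with endpoints linearly interpolated between the two concentrations bracketing the appropriate inhibition level. GI50 marks 50% less growth.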 Activity calls are given as the source filed them. Rule as the data show it: active = GI50 up to about 1.1 µM and inactive = higher.

Assays:
Assay in all cases: inhibition of tumour cell growth, NCI panel, 48 h
MDA-MB-231 = tested on: MDA-MB-231
NCI-H460 = tested on: NCI-H460
SK-MEL-28 = tested on: SK-MEL-28
NCI-H522 = tested on: NCI-H522
SN12C = tested on: SN12C
SK-MEL-5 = tested on: SK-MEL-5
U-251 = tested on: U-251
SK-MEL-2 = tested on: SK-MEL-2
MDA-MB-435 = tested on: MDA-MB-435
COLO 205 = tested on: COLO 205
MDA-N = tested on: MDA-N
UO-31 = tested on: UO-31
A498 = tested on: A498
SF-268 = tested on: SF-268
SK-OV-3 = tested on: SK-OV-3
UACC-62 = tested on: UACC-62
M14 = tested on: M14
786-0 = tested on: 786-0
SR = tested on: SR
CCRF-CEM = tested on: CCRF-CEM
KM12 = tested on: KM12
HCT-116 = tested on: HCT-116
PC-3 = tested on: PC-3
CAKI-1 = tested on: CAKI-1
HOP-92 = tested on: HOP-92
HT-29 = tested on: HT-29
MOLT-4 = tested on: MOLT-4
NCI-H226 = tested on: NCI-H226
A549 = tested on: A549
TK-10 = tested on: TK-10
RXF 393 = tested on: RXF 393
OVCAR-4 = tested on: OVCAR-4
OVCAR-5 = tested on: OVCAR-5
SNB-19 = tested on: SNB-19
SW-620 = tested on: SW-620
LOX IMVI = tested on: LOX IMVI
IGROV-1 = tested on: IGROV-1
NCI-H23 = tested on: NCI-H23
SF-539 = tested on: SF-539
SF-295 = tested on: SF-295
UACC-257 = tested on: UACC-257
MCF7 = tested on: MCF7
HL-60 = tested on: HL-60
DU-145 = tested on: DU-145
Hs-578T = tested on: Hs-578T
ACHN = tested on: ACHN
OVCAR-3 = tested on: OVCAR-3
RPMI-8226 = tested on: RPMI-8226
NCI/ADR-RES = tested on: NCI/ADR-RES
BT-549 = tested on: BT-549
OVCAR-8 = tested on: OVCAR-8
HCT-15 = tested on: HCT-15
HCC 2998 = tested on: HCC 2998
HOP-62 = tested on: HOP-62
EKVX = tested on: EKVX
SNB-75 = tested on: SNB-75
Malme-3M = tested on: Malme-3M
K562 = tested on: K562

Compound: Cc1nc(OCc2ccccc2)c2ncn(CCO)c2n1
- GI50 (MDA-MB-231): > 100 µM (inactive)
- GI50 (NCI-H460): > 100 µM (inactive)
- GI50 (SK-MEL-28): > 100 µM (inactive)
- GI50 (NCI-H522): > 100 µM (inactive)
- GI50 (SN12C): > 100 µM (inactive)
- GI50 (SK-MEL-5): > 100 µM (inactive)
- GI50 (U-251): > 100 µM (inactive)
- GI50 (SK-MEL-2): > 100 µM (inactive)
- GI50 (MDA-MB-435): > 100 µM (inactive)
- GI50 (COLO 205): > 100 µM (inactive)
- GI50 (MDA-N): > 100 µM (inactive)
- GI50 (UO-31): > 100 µM (inactive)
- GI50 (A498): > 100 µM (inactive)
- GI50 (SF-268): > 100 µM (inactive)
- GI50 (SK-OV-3): > 100 µM (inactive)
- GI50 (UACC-62): > 100 µM (inactive)
- GI50 (M14): > 100 µM (inactive)
- GI50 (786-0): > 100 µM (inactive)
- GI50 (SR): > 100 µM (inactive)
- GI50 (CCRF-CEM): > 100 µM (inactive)
- GI50 (KM12): > 100 µM (inactive)
- GI50 (HCT-116): > 100 µM (inactive)
- GI50 (PC-3): > 100 µM (inactive)
- GI50 (CAKI-1): > 100 µM (inactive)
- GI50 (HOP-92): 51.8 µM (inactive)
- GI50 (HT-29): > 100 µM (inactive)
- GI50 (MOLT-4): > 100 µM (inactive)
- GI50 (NCI-H226): > 100 µM (inactive)
- GI50 (A549): > 100 µM (inactive)
- GI50 (TK-10): > 100 µM (inactive)
- GI50 (RXF 393): > 100 µM (inactive)
- GI50 (OVCAR-4): > 100 µM (inactive)
- GI50 (OVCAR-5): > 100 µM (inactive)
- GI50 (SNB-19): > 100 µM (inactive)
- GI50 (SW-620): > 100 µM (inactive)
- GI50 (LOX IMVI): > 100 µM (inactive)
- GI50 (IGROV-1): > 100 µM (inactive)
- GI50 (NCI-H23): > 100 µM (inactive)
- GI50 (SF-539): > 100 µM (inactive)
- GI50 (SF-295): > 100 µM (inactive)
- GI50 (UACC-257): > 100 µM (inactive)
- GI50 (MCF7): > 100 µM (inactive)
- GI50 (HL-60): > 100 µM (inactive)
- GI50 (DU-145): > 100 µM (inactive)
- GI50 (Hs-578T): > 100 µM (inactive)
- GI50 (ACHN): > 100 µM (inactive)
- GI50 (OVCAR-3): > 100 µM (inactive)
- GI50 (RPMI-8226): > 100 µM (inactive)
- GI50 (NCI/ADR-RES): > 100 µM (inactive)
- GI50 (BT-549): > 100 µM (inactive)

Compound: CC1(C)CC(=O)C(=CN2C(=O)CNC2=S)C(=O)C1
- GI50 (MDA-MB-231): > 100 µM (inactive)
- GI50 (NCI-H460): > 100 µM (inactive)
- GI50 (NCI-H522): > 100 µM (inactive)
- GI50 (SN12C): > 100 µM (inactive)
- GI50 (SK-MEL-5): > 100 µM (inactive)
- GI50 (U-251): > 100 µM (inactive)
- GI50 (SK-MEL-2): > 100 µM (inactive)
- GI50 (MDA-MB-435): > 100 µM (inactive)
- GI50 (COLO 205): > 100 µM (inactive)
- GI50 (MDA-N): > 100 µM (inactive)
- GI50 (UO-31): > 100 µM (inactive)
- GI50 (SF-268): > 100 µM (inactive)
- GI50 (OVCAR-8): > 100 µM (inactive)
- GI50 (SK-OV-3): > 100 µM (inactive)
- GI50 (UACC-62): > 100 µM (inactive)
- GI50 (HCT-15): > 100 µM
- GI50 (M14): > 100 µM (inactive)
- GI50 (786-0): > 100 µM (inactive)
- GI50 (HCC 2998): > 100 µM (inactive)
- GI50 (HOP-62): > 100 µM (inactive)
- GI50 (CCRF-CEM): > 100 µM (inactive)
- GI50 (KM12): > 100 µM (inactive)
- GI50 (HCT-116): > 100 µM (inactive)
- GI50 (PC-3): > 100 µM (inactive)
- GI50 (CAKI-1): > 100 µM (inactive)
- GI50 (EKVX): > 100 µM (inactive)
- GI50 (HOP-92): > 100 µM (inactive)
- GI50 (MOLT-4): > 100 µM (inactive)
- GI50 (NCI-H226): > 100 µM (inactive)
- GI50 (A549): > 100 µM (inactive)
- GI50 (TK-10): > 100 µM (inactive)
- GI50 (RXF 393): 85.9 µM (inactive)
- GI50 (OVCAR-4): > 100 µM (inactive)
- GI50 (OVCAR-5): > 100 µM (inactive)
- GI50 (SNB-19): > 100 µM (inactive)
- GI50 (SW-620): > 100 µM (inactive)
- GI50 (IGROV-1): > 100 µM (inactive)
- GI50 (NCI-H23): > 100 µM (inactive)
- GI50 (SF-539): > 100 µM (inactive)
- GI50 (SF-295): > 100 µM (inactive)
- GI50 (UACC-257): > 100 µM (inactive)
- GI50 (MCF7): > 100 µM (inactive)
- GI50 (HL-60): > 100 µM (inactive)
- GI50 (DU-145): > 100 µM (inactive)
- GI50 (Hs-578T): > 100 µM (inactive)
- GI50 (SNB-75): > 100 µM (inactive)
- GI50 (ACHN): > 100 µM (inactive)
- GI50 (OVCAR-3): > 100 µM (inactive)
- GI50 (NCI/ADR-RES): > 100 µM (inactive)
- GI50 (BT-549): > 100 µM (inactive)

Compound: O=c1c2ccccc2nc(Cc2nc(-c3ccc(Cl)cc3)cs2)n1-c1ccc(Cl)cc1
- GI50 (MDA-MB-231): > 100 µM (inactive)
- GI50 (NCI-H460): 46.2 µM (inactive)
- GI50 (SK-MEL-28): 23.8 µM (inactive)
- GI50 (NCI-H522): > 100 µM (inactive)
- GI50 (Malme-3M): > 100 µM (inactive)
- GI50 (SK-MEL-5): 34.4 µM (inactive)
- GI50 (U-251): 54.5 µM (inactive)
- GI50 (SK-MEL-2): 28.1 µM (inactive)
- GI50 (MDA-MB-435): 46.3 µM (inactive)
- GI50 (COLO 205): 49.5 µM (inactive)
- GI50 (MDA-N): 41.4 µM (inactive)
- GI50 (UO-31): > 100 µM (inactive)
- GI50 (A498): 68.1 µM (inactive)
- GI50 (SF-268): 62.4 µM (inactive)
- GI50 (OVCAR-8): 82.6 µM (inactive)
- GI50 (SK-OV-3): > 100 µM (inactive)
- GI50 (UACC-62): 5.78 µM (inactive)
- GI50 (HCT-15): 31.5 µM
- GI50 (M14): > 100 µM (inactive)
- GI50 (786-0): 81.3 µM (inactive)
- GI50 (HCC 2998): 80 µM (inactive)
- GI50 (HOP-62): > 100 µM (inactive)
- GI50 (CCRF-CEM): 17.6 µM (inactive)
- GI50 (KM12): 41.8 µM (inactive)
- GI50 (HCT-116): 37.2 µM (inactive)
- GI50 (PC-3): 48 µM (inactive)
- GI50 (CAKI-1): > 100 µM (inactive)
- GI50 (EKVX): 64.6 µM (inactive)
- GI50 (HOP-92): 9.64 µM (inactive)
- GI50 (HT-29): 85.7 µM (inactive)
- GI50 (MOLT-4): 30.9 µM (inactive)
- GI50 (NCI-H226): 88.5 µM (inactive)
- GI50 (A549): 50.6 µM (inactive)
- GI50 (TK-10): > 100 µM (inactive)
- GI50 (RXF 393): > 100 µM (inactive)
- GI50 (OVCAR-4): 76.2 µM (inactive)
- GI50 (OVCAR-5): 27.1 µM (inactive)
- GI50 (SNB-19): > 100 µM (inactive)
- GI50 (SW-620): 91.8 µM (inactive)
- GI50 (LOX IMVI): 50.2 µM (inactive)
- GI50 (K562): 5.01 µM (inactive)
- GI50 (IGROV-1): 45.2 µM (inactive)
- GI50 (NCI-H23): 56.8 µM (inactive)
- GI50 (SF-295): 44.4 µM (inactive)
- GI50 (UACC-257): 67.6 µM (inactive)
- GI50 (MCF7): 46.9 µM (inactive)
- GI50 (HL-60): 66.2 µM (inactive)
- GI50 (DU-145): 55.8 µM (inactive)
- GI50 (Hs-578T): > 100 µM (inactive)
- GI50 (SNB-75): 79.6 µM (inactive)
- GI50 (ACHN): 37 µM (inactive)
- GI50 (OVCAR-3): 94.2 µM (inactive)
- GI50 (RPMI-8226): 23.8 µM (inactive)
- GI50 (NCI/ADR-RES): 57.5 µM (inactive)
- GI50 (BT-549): 82.2 µM (inactive)
